{"source": "paper PMC5656322", "about": "“BAK1 is involved in AtRALF1-induced inhibition of root cell expansion” (PLoS Genetics, 2017)", "molecules": {"B1": {"name": "Recombinant His-tagged HA-BAK1-ECD (domain or fragment, Arabidopsis thaliana, UniProt Q94F62 26-225, looked up)", "chain": "NAEGDALSALKNSLADPNKVLQSWDATLVTPCTWFHVTCNSDNSVTRVDLGNANLSGQLVMQLGQLPNLQYLELYSNNITGTIPEQLGNLTELVSLDLYLNNLSGPIPSTLGRLKKLRFLRLNNNSLSGEIPRSLTAVLTLQVLDLSNNPLTGDIPVNGSFSLFTPISFANTKLTPLPASPPPPISPTPPSPAGSNRITG", "notes": "BRI1-associated receptor kinase 1 (BAK1), Arabidopsis thaliana; extracellular domain; printed molecular weight 25,654.04 Da; HA-BAK1-ECD amplified from the pGADT7 construct, moved to pDEST17; also called BAK1-ED; not shown: HA, N-terminal, kept"}, "B2": {"name": "Recombinant His-tagged AtRALF1 (peptide, UniProt Q9SRY3 72-120, looked up)", "chain": "ATTKYISYQSLKRNSVPCSRRGASYYNCQNGAQANPYSRGCSKIARCRS", "modifications": "ends and bridges not checked; also: His-tagged", "notes": "Rapid alkalinization factor 1 (AtRALF1), Arabidopsis thaliana; the active peptide (49 residues by the label RALF1(9–49)), cloned in pET-28b at NdeI/HindIII; printed molecular weight 7,631 Da; The printed mass of 7,631 Da would fit the 49-residue peptide with the His tag of pET-28b still on it (surmise); also called recombinant AtRALF1; R1"}}, "key": {"[1]": {"system": "fer4 mutant", "conditions": "ref [10]; cited from earlier work", "source_text": "Isothermal titration calorimetry has been used to estimate Kd values for plant ligand-receptor kinase pairs, IDA/ HAESA and AtRALF23/FERONIA are among them and our Kd values are consistent with these reported values. […] Previous studies have shown the possibility of additional sites for AtRALF1 binding. In cell suspension cultures of tomato, tobacco and alfalfa, the ^125I-azido-RALF peptide cross-linked to two p ..."}, "[2]": {"system": "Arabidopsis seedlings, primary root", "assay": "Root growth inhibition assay, liquid medium, 24-well plates", "type": "in vivo, Arabidopsis thaliana", "conditions": "10 μM, 2 days", "experimental": "(A) and (B) Arabidopsis seedlings (2 days old) were treated with 10 μM AtRALF1 or water (H20) for 2 days. The values are the mean ± SD of at least 25 seedlings. Triple asterisks indicate P < 0.01 (Student’s t test); ns, not significant. (C) Four-day-old seedlings were transferred to media containing different concentrations of AtRALF1, and the primary root length was measured after 8 days of treatment. The data represent the mean value ± SD of 30 seedlings. […] Representative Arabidopsis seedlings after 8 days of treatment with AtRALF1 are shown below. Seedlings were arranged on plates after the treatment for imaging. Scale bars, 1 cm. (D) Two-day-old seedlings were treated with 10 μM AtRALF1 or water for 2 days, and root cell length was measured after 2 days of treatment. Cells from the root endodermis in the differentiation zone were measured. The values are the mean ± SD of approximately 150 cells. Triple asterisks indicate P < 0.01 (Student’s t test); ns, not significant.\nAliquots of 1 ml of medium containing seeds were distributed into 24-well plates. The peptides (10 μM) were added after 2 days, and the root length was measured 2 days after treatment. To maximize root growth, the seeds were germinated in vertical plates. […] The root length was measured 8 days after treatment unless stated otherwise. Control plants were grown under identical conditions in a peptide-free medium. Quantitative data were obtained as previously described. The experiments were repeated at least 3 times using independent biological replicates with similar results. The data from one representative experiment are shown. For cell length measurements, AtRALF1 peptide (10 μM) was added after 2 days of germination, and the cell length was measured after 2 days of treatment. The cell wall was stained with a 1 mg ml^-1 propidium iodide solution (Sigma) in the dark for 15 min and washed twice with water. Cells of the endodermis of the root differentiation zone were imaged and measured using confocal microscopy (Olympus FV1000). Approximately 30 plants from each genetic background and at least 5 cells per root were measured. The wavelengths for excitation and emission were 555 and 655 nm, respectively. Image processing was completed using the Olympus FluoView software.\nArabidopsis seedlings (2-days-old) were treated with 10 μM AtRALF1 or water (H20) for 2 days. The values are the mean ± SD of at least 25 seedlings. Triple asterisks indicate P < 0.01 (Student’s t test); ns, not significant. (PDF) Click here for additional data file.\nSupplementary file pgen.1007053.s002.pdf: S2 Fig Loss-of-function bak1 mutants are sensitive to the inhibitory activity of AtRALF23/34 on root growth. Arabidopsis seedlings (2-day-old) were treated with 10 μM RALF1(9–49), RALF1(I6A), AtRALF1, AtRALF23 and AtRALF34 or water (H20) for 2 days. The values are the mean ± SD of at least 20 seedlings. […] (PDF) Click here for additional data file."}, "[3]": {"system": "HA-BAK1-ECD", "assay": "Co-immunoprecipitation in vitro", "type": "binding, Arabidopsis thaliana", "conditions": "100 nM each protein, pH 6.3, overnight 4 °C, agarose anti-HA beads", "experimental": "The purified recombinant proteins AtRALF1 and HA-BAK1-ECD and the synthetic peptides RALF1(9–49) and RALF1(I6A) were combined in 200 μl of interaction buffer pH 6.3 (100 mM NaCl; 1 mM PMSF; 0.5%Triton X; 2.7 mM KCl; 8 mM NaH2PO4; 2 mM KH2PO4) overnight at 4 °C. A 100-nM concentration of each protein was used. This solution was incubated with agarose anti-HA beads (EZview Red Anti-HA Affinity Gel, Sigma) for 30 min at 4 °C to immunoprecipitate the proteins, washed 5 times with interaction buffer, eluted in 1X SDS sample buffer containing 10% β-mercaptoethanol and applied to an SDS-PAGE gel. The immunoprecipitated HA-BAK1-ECD and co-immunoprecipitated AtRALF1 were analyzed by protein blotting as described. The primary and secondary antibodies used to detect AtRALF1 were anti-AtRALF1 (1:10,000, Celula B, Immunology Laboratory, UFRGS, Brazil) and goat anti-rabbit HRP-conjugated secondary antibody (1: 10,000, BioRad), respectively."}, "[4]": {"system": "BAK1-GFP", "assay": "Co-immunoprecipitation with microsomal fraction of N. benthamiana leaves expressing BAK1-GFP", "type": "binding, Arabidopsis thaliana", "conditions": "600 nM peptide, 1 h, 4 °C, anti-GFP antibody", "experimental": "This assay was performed as previously described with some modifications. The BAK1 coding region was amplified from Arabidopsis genomic cDNA using standard PCR with the primers BAK1 Fw and BAK1 Rv (S1 Table). To generate the p35S-BAK1:GFP plasmid, the fragment was cloned into the pENTR D-TOPO vector and later transferred to the pk7FWG2 vector [56]. Leaves from N. benthamiana plants were agroinfiltrated with p19 vector alone and p19 co-expressed with p35S-BAK1:GFP, as previously described. After 3 days, leaves were homogenized in extraction buffer [300 mM sucrose, 100 mM Tris-HCl pH 7.5, 25 mM EDTA, 25 mM NaF, 1 mM Na2MoO4, 1 mM PMSF, 1 mM DTT and protease inhibitor cocktail (Roche), pH 6.2 adjusted] and centrifuged at 1,000 g for 10 min at 4°C, and the supernatant was then centrifuged at 100,000 g for 50 min at 4°C to precipitate the microsomal pellet. The pellet was resuspended in the extraction buffer plus 0.5% Triton-X and incubated with 600 nM recombinant AtRALF1 or 600 nM RALF1(I6A) for 1 h at 4°C. The complexes were incubated with anti-GFP antibody (Santa Cruz Biotechnology) and Sepharose Beads plus protein A (Life Technologies) overnight at 4°C. […] The AtRALF1/BAK1-GFP complex bound to the beads was eluted with denaturing in 10 μl of 1X loading buffer (NuPAGE LDS buffer) at 95°C for 8 min, then analyzed by SDS-PAGE. The proteins were detected as previously described."}, "[5]": {"system": "BAK1", "assay": "BAK1 phosphorylation assay, anti-phosphothreonine", "type": "in vivo, Arabidopsis thaliana", "conditions": "pBAK1:BAK1-HA roots, 20 min; AtRALF1 1, 2, 10 μM; BL 0.1 μM", "experimental": "Transgenic plants pBAK1:BAK1-6xHA were grown in vertical plates for 10–15 days. The plants were treated with 0.1 μM BL, 2 μM RALF1(9–49), 1 μM, 2 μM or 10 μM AtRALF1 for 20 min. The roots were isolated, and the microsomal fractions were obtained as described above. The microsomal fractions were incubated with anti-HA beads (EZview Red Anti-HA Affinity Gel, Sigma) for 2 h at 4 °C to immunoprecipitate the BAK1 protein. The unbound materials were removed by washing 3 times. Proteins were separated by SDS/PAGE and further analyzed by protein blotting using anti-HA (Thermo Scientific), or anti-phosphothreonine (Novus Biologicals), or anti-phosphoserine (Novus Biologicals) antibodies."}, "[6]": {"system": "Arabidopsis seedlings, primary root", "assay": "Root growth inhibition assay, vertical plates", "type": "in vivo, Arabidopsis thaliana", "conditions": "bak1 mutants, 0 or 1 μM BL, 8 days"}, "[7]": {"system": "cytosolic Ca^2+ in Arabidopsis seedlings", "conditions": "BL; ref [38]; cited from earlier work"}, "[8]": {"system": "BAK1 gene", "conditions": "BL hormone treatment, Arabidopsis plants; ref [29]; cited from earlier work", "source_text": "It has been previously shown through microarray experiments that the treatment of Arabidopsis plants with AtRALF1 causes BAK1 gene induction by approximately 1.56-fold. Our data are consistent with that previous observation and add a new gene to the list of AtRALF1-inducible genes. […] The fact that AtRALF1 peptide and BL treatment both induce BAK1 gene expression provides further evidence that BAK1 ..."}, "[9]": {"system": "AtPRP3, AtHRGP2, CPD and DWF4 genes", "conditions": "cited from earlier work", "source_text": "AtRALF1-overexpressing plants are less sensitive to exogenous brassinosteroids (BRs). […] AtRALF1 also induces two cytochrome P450 monooxygenase genes related to the BR biosynthetic pathway: Constitutive Photomorphism and Dwarfism (CPD) and DWARF4 (DWF4). We exposed the bak1 mutants to the same concentration of AtRALF1 and evaluated the capacity to induce the AtPRP3, AtHRGP2, CPD and DWF4 genes. None of the AtRALF1-inducible genes were ..."}, "[10]": {"system": "plants overexpressing the AtRALF1 gene", "conditions": "plants overexpressing AtRALF1 treated with BL; ref [9]; cited from earlier work", "source_text": "AtRALF1-overexpressing plants are less sensitive to exogenous brassinosteroids (BRs). […] The expansin A5 gene (AtEXPA5), which is involved in the regulation of cell ..."}, "[11]": {"biological_target": "B2", "assay": "ITC; VP ITC; 0.7 mM BAK1-ECD in the syringe (28 injections of 10 μl) into 0.03 mM peptide in the 1.4 ml cell; 15 mM HEPES pH 6.8; 25 °C; three independent experiments", "conditions": "both partners purified"}, "[12]": {"biological_target": "B1", "assay": "ITC; VP ITC; 0.7 mM BAK1-ECD in the syringe (28 injections of 10 μl) into 0.03 mM peptide in the 1.4 ml cell; 15 mM HEPES pH 6.8; 25 °C; three independent experiments", "conditions": "both partners purified"}}, "note": "Where “and” joins values, the source holds several entries; their conditions need not be identical. Identical values can stand only once. Where no end group is shown, it is not given here."}
{"molecule": "^125I-labeled AtRALF1: AtRALF1 radiolabeled with ^125I, earlier study [10] (ATTKYISYQSLKRNSVPCSRRGASYYNCQNGAQANPYSRGCSKIARCRS; ends and bridges not checked; also: radiolabeled with 125I; UniProt Q9SRY3 72-120, looked up)", "values": [{"measurement": "reduction of specific binding of 125I-labeled AtRALF1", "setting": "[1]", "result": "approximately 40%"}]}
{"molecule": "RALF1(I6A): inactive AtRALF1 peptide which has an Ile replaced by an Ala in the conserved YISY domain (ATTKYASYQSLKRNSVPCSRRGASYYNCQNGAQANPYSRGCSKIARCRS; ends and bridges not checked; cysteine pairing not given here; UniProt Q9SRY3 72-120, looked up, variant I6A)", "values": [{"measurement": "activity of negative control peptides on root growth", "setting": "[2]", "result": "inactive"}, {"measurement": "co-immunoprecipitation with HA-BAK1-ECD", "setting": "[3]", "result": "did not co-immunoprecipitate with BAK1"}, {"measurement": "co-immunoprecipitation with BAK1-GFP", "setting": "[4]", "result": "did not co-immunoprecipitate with BAK1-GFP"}]}
{"molecule": "CC(C)[C@H](C)[C@@H](O)[C@H](O)[C@@H](C)[C@H]1CC[C@H]2[C@@H]3COC(=O)[C@H]4C[C@H](O)[C@H](O)C[C@]4(C)[C@H]3CC[C@]12C", "note": "[BL, brassinolide, reference compound]", "values": [{"measurement": "BAK1 phosphorylation in threonine residues", "setting": "[5]", "result": "increase resulting from the treatment of the seedlings with BL"}, {"measurement": "sensitivity of root growth to BL", "setting": "[6]", "result": "Reduced sensitivity"}, {"measurement": "mobilization of Ca^2+, dependence on BAK1", "setting": "[7]", "result": "independent of BAK1"}, {"measurement": "BAK1 gene induction", "setting": "[8]", "result": "promotes BAK1 gene induction in Arabidopsis plants"}, {"measurement": "AtRALF23 gene expression", "setting": "[9]; Arabidopsis seedlings, BL, ref [4],[19]", "result": "down-regulated"}, {"measurement": "CPD and DWF4 gene expression", "setting": "[9]; BL treatment, ref [9]", "result": "down-regulated by BL treatment"}, {"measurement": "AtEXPA5 expression", "setting": "[9]; roots of treated seedlings, ref [16]–[18]", "result": "induced by BL"}, {"measurement": "hypocotyl elongation", "setting": "[10]", "result": "a minor increase in hypocotyl elongation"}, {"measurement": "number of lateral roots", "setting": "[10]", "result": "no change in the number of lateral roots"}, {"measurement": "root length", "setting": "[10]", "result": "no increase in root length"}]}
{"molecule": "B1", "values": [{"measurement": "stoichiometry N", "setting": "[11]", "result": "1.5 and 0.5 and 1.27"}]}
{"molecule": "B2", "values": [{"measurement": "Kd", "setting": "[12]", "result": "4.6 µM and 4.9 µM and 5.8 µM"}]}
